Reference: patent US20240425517A1, “NOVEL COMPOUND FOR DEGRADATION OF TARGET PROTEIN OR POLYPEPTIDE BY POLYUBIQUITINATION” (PRAZER THERAPEUTICS INC., priority 2021, published 2024)

Target: T1, BRD4 proteins (Homo sapiens, UniProt O60885)
T1 construct: endogenous in cells; host or cells: MM.1S
Experiment: Degradation of BRD4 protein in MM.1S cell lines (Western blot densitometry)
Assay type: cell-based
Conditions: MM.1S cells, 10 μM, 24 hours
Method in brief: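 MM.1S cells in RPMI-1640 with 10% FBS were treated with each degrader at 10 μM for 24 h. RIPA lysates were analysed by SDS-PAGE/Western blot with β-actin as reference, and BRD4 band densitometry was scored as reduction <40% (+), 40-<70% (++) or ≥70% (+++).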

SMILES	BRD4 degrading capacity (%)
Cc1sc2c(c1C)C(c1ccc(Cl)cc1)=N[C@@H](CC(=O)NCCCC(=O)Nc1ccc(C(N)=O)c(C#CCN)c1)c1nnc(C)n1-2.Cl [5-59′, (S)-2-(3-aminoprop-1-yn-1-yl)-4-(4-(2-(4-(4-chlorophenyl)-2,3,9-trimethyl-6H-thieno[3,2-f][1,2,4]triazolo[4,3-a][1,4]diazepin-6-yl)acetamido)butanamido)benzamide hydrochloride]	+++ (the degrading capacity was reduced by 70% or more)
Cc1sc2c(c1C)C(c1ccc(Cl)cc1)=N[C@@H](CC(=O)NCCCC(=O)Nc1ccc(C(=O)N(C)C)c(C#CCN)c1)c1nnc(C)n1-2.Cl [5-61′, (S)-2-(3-aminoprop-1-yn-1-yl)-4-(4-(2-(4-(4-chlorophenyl)-2,3,9-trimethyl-6H-thieno[3,2-f][1,2,4]triazolo[4,3-a][1,4]diazepin-6-yl)acetamido)butanamido)-N,N-dimethylbenzamide hydrochloride]	++ (the degrading capacity was reduced by 40% to 70% (exclusive of 70))
COc1ccc(NC(=O)CCCNC(=O)C[C@@H]2N=C(c3ccc(Cl)cc3)c3c(sc(C)c3C)-n3c(C)nnc32)cc1C#CCN [5-63′, (S)—N-(3-(3-aminoprop-1-yn-1-yl)-4-methoxyphenyl)-4-(2-(4-(4-chlorophenyl)-2,3,9-trimethyl-6H-thieno[3,2-f][1,2,4]triazolo[4,3-a][1,4]diazepin-6-yl)acetamido)butanamide trifluoroacetic acid]	++ (the degrading capacity was reduced by 40% to 70% (exclusive of 70))
Cc1ccc(NC(=O)CCCNC(=O)C[C@@H]2N=C(c3ccc(Cl)cc3)c3c(sc(C)c3C)-n3c(C)nnc32)cc1C#CCN.Cl [5-65′, (S)—N-(3-(3-aminoprop-1-yn-1-yl)-4-methylphenyl)-4-(2-(4-(4-chlorophenyl)-2,3,9-trimethyl-6H-thieno[3,2-f][1,2,4]triazolo[4,3-a][1,4]diazepin-6-yl)acetamido)butanamide hydrochloride]	+ (the degrading capacity of each BRD4 degrader was reduced by less than 40%)
Cc1sc2c(c1C)C(c1ccc(Cl)cc1)=N[C@@H](CC(=O)NCCCC(=O)Nc1ccc(C(F)(F)F)c(C#CCN)c1)c1nnc(C)n1-2.Cl [5-75′, (S)—N-(3-(3-aminoprop-1-yn-1-yl)-4-(trifluoromethyl)phenyl)-4-(2-(4-(4-chlorophenyl)-2,3,9-trimethyl-6H-thieno[3,2-f][1,2,4]triazolo[4,3-a][1,4]diazepin-6-yl)acetamido)butanamide hydrochloride]	+++ (the degrading capacity was reduced by 70% or more)
Cc1sc2c(c1C)C(c1ccc(Cl)cc1)=N[C@@H](CC(=O)NCCCC(=O)Nc1ccc(F)c(C#CCN)c1)c1nnc(C)n1-2.Cl [5-77′, (S)—N-(3-(3-aminoprop-1-yn-1-yl)-4-fluorophenyl)-4-(2-(4-(4-chlorophenyl)-2,3,9-trimethyl-6H-thieno[3,2-f][1,2,4]triazolo[4,3-a][1,4]diazepin-6-yl)acetamido)butanamide hydrochloride]	+ (the degrading capacity of each BRD4 degrader was reduced by less than 40%)
COC(=O)c1c(C)cc(NC(=O)CCCNC(=O)C[C@@H]2N=C(c3ccc(Cl)cc3)c3c(sc(C)c3C)-n3c(C)nnc32)cc1C#CCN.Cl [5-78′, methyl (S)-2-(3-aminoprop-1-yn-1-yl)-4-(4-(2-(4-(4-chlorophenyl)-2,3,9-trimethyl-6H-thieno[3,2-f][1,2,4]triazolo[4,3-a][1,4]diazepin-6-yl)acetamido)butanamido)-6-methylbenzoate hydrochloride]	+ (the degrading capacity of each BRD4 degrader was reduced by less than 40%)
Cc1sc2c(c1C)C(c1ccc(Cl)cc1)=N[C@@H](CC(=O)NCCCC(=O)Nc1ccc(-c3cnc(C(F)(F)F)nc3)c(C#CCN)c1)c1nnc(C)n1-2.Cl [5-81′, (S)—N-(3-(3-aminoprop-1-yn-1-yl)-4-(2-(trifluoromethyl)pyrimidin-5-yl)phenyl)-4-(2-(4-(4-chlorophenyl)-2,3,9-trimethyl-6H-thieno[3,2-f][1,2,4]triazolo[4,3-a][1,4]diazepin-6-yl)acetamido)butanamide hydrochloride]	+++ (the degrading capacity was reduced by 70% or more)
COC(=O)c1ccc(NCC2CCN(C(=O)C[C@@H]3N=C(c4ccc(Cl)cc4)c4c(sc(C)c4C)-n4c(C)nnc43)CC2)cc1C#CCN [5-85′, methyl (S)-2-(3-aminoprop-1-yn-1-yl)-4-(((1-(2-(4-(4-chlorophenyl)-2,3,9-trimethyl-6H-thieno[3,2-f][1,2,4]triazolo[4,3-a][1,4]diazepin-6-yl)acetyl)piperidin-4-yl)methyl)amino)benzoate trifluoroacetic acid]	+++ (the degrading capacity was reduced by 70% or more)
COC(=O)c1ccc(NC2CCN(C(=O)C[C@@H]3N=C(c4ccc(Cl)cc4)c4c(sc(C)c4C)-n4c(C)nnc43)CC2)cc1C#CCN [5-86′, methyl (S)-2-(3-aminoprop-1-yn-1-yl)-4-((1-(2-(4-(4-chlorophenyl)-2,3,9-trimethyl-6H-thieno[3,2-f][1,2,4]triazolo[4,3-a][1,4]diazepin-6-yl)acetyl)piperidin-4-yl)amino)benzoate]	+++ (the degrading capacity was reduced by 70% or more)
COC(=O)c1cc(C#CCN)cc(NC(=O)CCCNC(=O)C[C@@H]2N=C(c3ccc(Cl)cc3)c3c(sc(C)c3C)-n3c(C)nnc32)c1.Cl [5-89′, methyl (S)-3-(3-aminoprop-1-yn-1-yl)-5-(4-(2-(4-(4-chlorophenyl)-2,3,9-trimethyl-6H-thieno[3,2-f][1,2,4]triazolo[4,3-a][1,4]diazepin-6-yl)acetamido)butanamido)benzoate hydrochloride]	+ (the degrading capacity of each BRD4 degrader was reduced by less than 40%)
COC(=O)c1ccc(C#CCN)cc1NC(=O)CCCNC(=O)C[C@@H]1N=C(c2ccc(Cl)cc2)c2c(sc(C)c2C)-n2c(C)nnc21.Cl [5-90′, methyl (S)-4-(3-aminoprop-1-yn-1-yl)-2-(4-(2-(4-(4-chlorophenyl)-2,3,9-trimethyl-6H-thieno[3,2-f][1,2,4]triazolo[4,3-a][1,4]diazepin-6-yl)acetamido)butanamido)benzoate hydrochloride]	+++ (the degrading capacity was reduced by 70% or more)
COC(=O)c1nc(NC(=O)CCCNC(=O)C[C@@H]2N=C(c3ccc(Cl)cc3)c3c(sc(C)c3C)-n3c(C)nnc32)ccc1C#CCN.Cl [5-96′, methyl (S)-3-(3-aminoprop-1-yn-1-yl)-6-(4-(2-(4-(4-chlorophenyl)-2,3,9-trimethyl-6H-thieno[3,2-f][1,2,4]triazolo[4,3-a][1,4]diazepin-6-yl)acetamido)butanamido)picolinate hydrochloride]	+++ (the degrading capacity was reduced by 70% or more)
Cc1sc2c(c1C)C(c1ccc(Cl)cc1)=N[C@@H](CC(=O)NCCCCCC(=O)Nc1cccc(C#CCN)c1)c1nnc(C)n1-2.Cl [5-104′, (S)—N-(3-(3-aminoprop-1-yn-1-yl)phenyl)-6-(2-(4-(4-chlorophenyl)-2,3,9-trimethyl-6H-thieno[3,2-f][1,2,4]triazolo[4,3-a][1,4]diazepin-6-yl)acetamido)hexanamide hydrochloride]	++ (the degrading capacity was reduced by 40% to 70% (exclusive of 70))
COC(=O)c1ccc(NC(=O)CCCC(=O)OCC[C@@H]2N=C(c3ccc(Cl)cc3)c3c(sc(C)c3C)-n3c(C)nnc32)cc1C#CCN.Cl [5-106′, methyl (S)-2-(3-aminoprop-1-yn-1-yl)-4-(5-(2-(4-(4-chlorophenyl)-2,3,9-trimethyl-6H-thieno[3,2-f][1,2,4]triazolo[4,3-a][1,4]diazepin-6-yl)ethoxy)-5-oxopentanamido)benzoate hydrochloride]	+ (the degrading capacity of each BRD4 degrader was reduced by less than 40%)
Cc1sc2c(c1C)C(c1ccc(Cl)cc1)=N[C@@H](CC(=O)NCCCCCCCC(=O)Nc1cccc(C#CCN)c1)c1nnc(C)n1-2.Cl [5-107′, (S)—N-(3-(3-aminoprop-1-yn-1-yl)phenyl)-8-(2-(4-(4-chlorophenyl)-2,3,9-trimethyl-6H-thieno[3,2-f][1,2,4]triazolo[4,3-a][1,4]diazepin-6-yl)acetamido)octanamide hydrochloride]	++ (the degrading capacity was reduced by 40% to 70% (exclusive of 70))
Cc1sc2c(c1C)C(c1ccc(Cl)cc1)=N[C@@H](CC(=O)NCCCCCCCCCCC(=O)Nc1cccc(C#CCN)c1)c1nnc(C)n1-2.Cl [5-108′, (S)—N-(3-(3-aminoprop-1-yn-1-yl)phenyl)-11-(2-(4-(4-chlorophenyl)-2,3,9-trimethyl-6H-thieno[3,2-f][1,2,4]triazolo[4,3-a][1,4]diazepin-6-yl)acetamido)undecanamide hydrochloride]	+++ (the degrading capacity was reduced by 70% or more)
Cc1sc2c(c1C)C(c1ccc(Cl)cc1)=N[C@@H](CCOC(=O)CCCCCCCCCC(=O)Nc1cccc(C#CCN)c1)c1nnc(C)n1-2.Cl [5-109′, (S)-2-(4-(4-chlorophenyl)-2,3,9-trimethyl-6H-thieno[3,2-f][1,2,4]triazolo[4,3-a][1,4]diazepin-6-yl)ethyl 11-((3-(3-aminoprop-1-yn-1-yl)phenyl)amino)-11-oxoundecanoate hydrochloride]	+++ (the degrading capacity was reduced by 70% or more)
COC(=O)c1ccc(NC(=O)CCCCCCCCCC(=O)OCC[C@@H]2N=C(c3ccc(Cl)cc3)c3c(sc(C)c3C)-n3c(C)nnc32)cc1C#CCN.Cl [5-110′, methyl (S)-2-(3-aminoprop-1-yn-1-yl)-4-(11-(2-(4-(4-chlorophenyl)-2,3,9-trimethyl-6H-thieno[3,2-f][1,2,4]triazolo[4,3-a][1,4]diazepin-6-yl)ethoxy)-11-oxoundecanamido)benzoate hydrochloride]	++ (the degrading capacity was reduced by 40% to 70% (exclusive of 70))
